In patent US8822519B2, “Compound with agitation effect on peroxisome proliferator-activated receptor process for its preparation and use thereof” (Zhejiang Hisun Pharmaceutical Co., Ltd., priority 2008, dated 2014):

Legend:
[1] = test system: Macaca rhesus model of hyperlipidemia; assay: Macaca rhesus model of hyperlipidemia, hematological indicators and ELISA; type: in vivo; conditions: three months of administration
Description: Afterwards, efficacy of the medicament of the A-3 was confirmed in the Macaca rhesus model of hyperlipidemia. After three months of administration, blood samples were taken from the femoral vein for the determination of hematological indicators, and the determination of the insulin, apolipoprotein A-1 (apoA-1) and apolipoprotein B-100 (apoB-100) by ELISA.

[2] = test system: high fat fodder obese C57BL/6J mice; assay: High fat fodder obese mice: levels of blood lipid and blood glucose; type: in vivo; parameters: HDL / GLU / TC / TG: unit not given here; conditions: for GLU / HDL / TC / TG: mean ± s, n 5
Description: 3 week-old male C57BL/6J mice were chosen as experiment animals, 15 of which were randomly selected to feed with a standard fodder, and the remains were allowed to feed with a high fat fodder, with each of the mice being marked by ear-cutting. The body weights and fodder intake of the mice were weighed every week. […] […], the effects of the medicaments on the levels of blood lipid and blood glucose, body weight, and fodder intake in the animals were observed, while a glucose tolerance test was performed to investigate the effects of the medicaments on the glucose tolerance in the animals.

[3] = test system: high fat fodder obese C57BL/6J mice; assay: High fat fodder obese mice: body weight and food intake; type: in vivo
Description: (§1) 3 week-old male C57BL/6J mice were chosen as experiment animals, 15 of which were randomly selected to feed with a standard fodder, and the remains were allowed to feed with a high fat fodder, with each of the mice being marked by ear-cutting. The body weights and fodder intake of the mice were weighed every week. […] After the administration of the inventive compounds for four weeks, the effects of the medicaments on the levels of blood lipid and blood glucose, body weight, and fodder intake in the animals were observed, while a glucose tolerance test was performed to investigate the effects of the medicaments on the glucose tolerance in the animals.

[4] = test system: high fat fodder obese C57BL/6J mice; assay: Oral glucose tolerance test in obese mice; type: in vivo; conditions: FIG. 2, in words
Description: The abscissa represents blood-sampling time points, 0 min, 30 min, 60 min, 120 min after orally given with glucose; the ordinate represents the corresponding blood glucose level (mmol/L).
as §1

[5] = Pharmacokinetics: plasma concentration-time curve; type: in vivo; conditions: SD rats, gastric lavage, 50, 10 and 2 mg/kg
Description: The dosing volume was 10 ml/kg, and blood samples of 0.4-0.5 ml were taken from the vena orbitalis posterior of the waken animals at different time points post-gastric lavage and centrifuged at 5000 rpm for 10 min. 200 μL of plasma sample was precisely measured, then supplemented with 200 μL acetonitrile, vortexed to evenness, left stand for 5 min, and centrifuged (14000 rpm, 5 min). The supernatant was collected and then centrifuged again (14000 rpm, 5 min). The resulting supernatant was gathered and subjected to HPLC injection. Time points for blood sampling were respectively: 0, 0.5, 1, 2, 4, 6, 8, 10, 12, 24, 36, 48 and 72 h, and the peak area for each time point was the average of those obtained from 6 rats at the same time point. Plasma concentrations were calculated and the medicament concentration-time curve was plotted.

Tissue distribution = type: in vivo, SD rats; conditions: distribution in organs, SD rats, 10 mg/kg
Description: 18 of SD rats were fasting for 16 h with free access for water, assigned them into 3 groups with 6 animals/group with a female-to-male ratio of 1:1; they were dosed with HS060098 (10 mg/kg), then the animals were sacrificed at 1, 10, and 24 h after dosing, and the heart, liver, spleen, lung, kidney in each animal were removed rapidly. The tainted blood on the surface of the organ was washed off immediately with physiological saline. The tissue from the organ was dissected apart, washed thoroughly, blotted off, weighed, supplemented with physiological saline at 400 mg/ml, homogenized in an ice bath for 1 min, and centrifuged at 3750 rpm for 20 min. 400 μl of the supernatant was pipetted precisely, followed by addition of 40 μl of an inner standard (HS060001 used as the inner standard with a molar concentration of 5 mmol/L), diluted with 3 ml of purified water, vortexed to homogeneity, and loaded onto a column (SPE C18 column was firstly washed with 3 ml of purified water, and sequentially with 3 ml of 10% methanol for activation). The column was rinsed with 3 ml of purified water at 1 ml/min, and then eluted with 3 ml of a elutant (methanol: purified water=9:1). The eluate was collected and blow-dried under a nitrogen flow at 45° C. The residue was dissolved in 400 μl of acetonitrile and then a HPLC insert was placed and followed by injection of the sample.

[6] = vs hyperlipidemia model control group
[7] = 2 weeks administration, 3.3 mg/kg
[8] = 2 weeks administration, 10 mg/kg
[9] = 4 weeks administration, 3.3 mg/kg
[10] = 4 weeks administration, 10 mg/kg

## 2-(3-methyl-4-(1-(3-(4-methyl-5-oxo-1-(4-trifluoromethyl-phenyl)-4,5-dihydrogen-1H-1,2,4-triazolyl))-benzyloxy)-phenylthio)-acetic acid [Compound A-3]
[1]; ELISA, in words
  concentration of apoA-1: significantly increased
  concentration of apoB-100: significantly decreased
  insulin concentration: significantly decreased
[1]; [6]
  high density lipoprotein (HDLc) increased: 67%
  low density lipoprotein (LDLc) decreased: 38%
  serum total cholesterol (TC) decreased: 45%
[2]; [7]
  GLU: 9.52 ± 1.71
  HDL: 3.31 ± 0.21
  TC: 3.25 ± 2.76
  TG: 0.19 ± 0.12
[2]; [8]
  GLU: 6.54 ± 1.04
  HDL: 2.94 ± 1.42
  TC: 5.12 ± 0.65
  TG: 0.18 ± 0.02
[2]; [9]
  GLU: 9.54 ± 0.71
  HDL: 3.1 ± 0.59
  TC: 5.11 ± 0.31
  TG: 0.07 ± 0.01
[2]; [10]
  GLU: 6.6 ± 1.15
  HDL: 2.89 ± 0.28
  TC: 4.75 ± 0.57
  TG: 0.11 ± 0.07
[2]; in words
  levels of TG and GLU in the sera from the model animals: significantly decrease
[3]; column 1, 3.3 mg/kg
  Food intake: 5.22 g
[3]; column 1, 10 mg/kg
  Food intake: 5.46 g
[3]; column 2, 3.3 mg/kg
  Food intake: 5.04 g
[3]; column 2, 10 mg/kg
  Food intake: 4.84 g
[3]; column 3, 3.3 mg/kg
  Food intake: 6.06 g
[3]; column 3, 10 mg/kg
  Food intake: 4.94 g
[3]; column 4, 3.3 mg/kg
  Food intake: 5.1 g
[3]; column 4, 10 mg/kg
  Food intake: 5.28 g
[3]; column 5, 3.3 mg/kg
  Food intake: 6.275 g
[3]; column 5, 10 mg/kg
  Food intake: 6.9 g
[3]; in words
  effect on the food intake of the animals: no significant effect
[3]; in words, Table 4 and FIG. 1
  body weight of the animals: significantly decrease
[4]
  glucose tolerance in the obese animals: significantly improve the glucose tolerance
[5]
  bioavailability: 86%
Tissue distribution
  Heart: 26%
  Kidney: 9%
  Liver: 36%
  Lung: 16%
  Spleen: 13%
